Reference: patent publication US7414071B2, “Methods of treatment with selective EP4 receptor agonists” (Pfizer Inc., priority 2002, dated 2008)

Test system: New Zealand White male rabbits
Experiment: In vivo anesthetized rabbit model (hypotensive effect: mean arterial pressure and heart rate)
Experimental: Methods: New Zealand White male rabbits (3-4 kg) are anesthetized with sodium pentobarbital (30 mg/kg, i.v.) and a surgical plane of anesthesia is maintained by a continuous infusion of sodium pentobarbital (16 mg/kg/hr) via an ear vein catheter. A tracheotomy is performed through a ventral midline cervical incision and the rabbits are ventilated with 100% oxygen using a positive pressure ventilator. Body temperature is maintained at 38.5° C. using a heating pad connected to a YSI temperature controller model 72 (Yellow Springs Instruments, Yellow Springs, […].). Fluid-filled catheters are placed in the right jugular vein (for intravenous drug administration) and in the right carotid artery for arterial pressure monitoring and for blood gas analysis using a model 248 blood gas analyzer (Bayer Diagnostics, Norwood, Mass.). The ventilator is adjusted as needed to maintain blood pH and pCO2 within normal physiological ranges for rabbits. […] Blood is sampled after dosing or during the infusion of the test compound to determine plasma concentrations of the test compounds.
Thus, dosing volumes were 0.2 ml/kg (Group A) subcutaneously or 5 ml/h (Groups B, C, and D) as an intravenous (IV) infusion. The term “mgA” means the number of milligrams adjusted for active compound (e.g. corrected for salt etc.).
Dosing: Four groups (Groups A, B, C, and D) of two rabbits each were dosed as follows.

[1] = Group C, 16.7 μg/kg/h IV infusion
[2] = Group D, 1.67 μg/kg/h, 4 hour IV infusion

## O=C([O-])c1ccc(CCCN2C(=O)CC[C@@H]2CC[C@@H](O)Cc2cccc(C(F)(F)F)c2)s1.[Na+] [Compound 3M sodium salt]
Group B, 167 μg/kg/hr IV infusion for 4 hours, 15 min, mean of 2, baseline 260
  heart rate (HR): 296 beats/minute
Group B, 167 μg/kg/hr IV infusion for 4 hours, 30 min, mean of 2, baseline 87
  mean arterial pressure (MAP): 68 mm Hg
Group B, 167 μg/kg/hr IV infusion for 4 hours, 30 min, mean of 2, baseline 260
  heart rate (HR): 291 beats/minute
Group B, 167 μg/kg/hr IV infusion for 4 hours, 60 min, mean of 2, baseline 87
  mean arterial pressure (MAP): 67 mm Hg
Group B, 167 μg/kg/hr IV infusion for 4 hours, 60 min, mean of 2, baseline 260
  heart rate (HR): 293 beats/minute
Group B, 167 μg/kg/hr IV infusion for 4 hours, 90 min, mean of 2, baseline 87
  mean arterial pressure (MAP): 57 mm Hg
Group B, 167 μg/kg/hr IV infusion for 4 hours, 90 min, mean of 2, baseline 260
  heart rate (HR): 282 beats/minute
Group B, 167 μg/kg/hr IV infusion for 4 hours, 120 min, mean of 2, baseline 87
  mean arterial pressure (MAP): 55 mm Hg
Group B, 167 μg/kg/hr IV infusion for 4 hours, 120 min, mean of 2, baseline 260
  heart rate (HR): 282 beats/minute
Group B, 167 μg/kg/hr IV infusion for 4 hours, 150 min, mean of 2, baseline 87
  mean arterial pressure (MAP): 52 mm Hg
Group B, 167 μg/kg/hr IV infusion for 4 hours, 150 min, mean of 2, baseline 260
  heart rate (HR): 279 beats/minute
Group B, 167 μg/kg/hr IV infusion for 4 hours, 180 min, mean of 2, baseline 87
  mean arterial pressure (MAP): 53 mm Hg
Group B, 167 μg/kg/hr IV infusion for 4 hours, 180 min, mean of 2, baseline 260
  heart rate (HR): 285 beats/minute
Group B, 167 μg/kg/hr IV infusion for 4 hours, 210 min, mean of 2, baseline 87
  mean arterial pressure (MAP): 56 mm Hg
Group B, 167 μg/kg/hr IV infusion for 4 hours, 210 min, mean of 2, baseline 260
  heart rate (HR): 284 beats/minute
Group B, 167 μg/kg/hr IV infusion for 4 hours, 240 min, mean of 2, baseline 87
  mean arterial pressure (MAP): 55 mm Hg
Group B, 167 μg/kg/hr IV infusion for 4 hours, 240 min, mean of 2, baseline 260
  heart rate (HR): 297 beats/minute
[1]
  effect on heart rate: slight increase in the heart rate
  effect on mean arterial pressure: slight decrease in mean arterial pressure
Group C, 16.7 μg/kg/hr IV infusion for 4 hours, 5 min, mean of 2, baseline 95
  mean arterial pressure (MAP): 91 mm Hg
Group C, 16.7 μg/kg/hr IV infusion for 4 hours, 5 min, mean of 2, baseline 291
  heart rate (HR): 289 beats/minute
Group C, 16.7 μg/kg/hr IV infusion for 4 hours, 10 min, mean of 2, baseline 95
  mean arterial pressure (MAP): 86 mm Hg
Group C, 16.7 μg/kg/hr IV infusion for 4 hours, 10 min, mean of 2, baseline 291
  heart rate (HR): 299 beats/minute
Group C, 16.7 μg/kg/hr IV infusion for 4 hours, 15 min, mean of 2, baseline 95
  mean arterial pressure (MAP): 84 mm Hg
Group C, 16.7 μg/kg/hr IV infusion for 4 hours, 15 min, mean of 2, baseline 291
  heart rate (HR): 302 beats/minute
Group C, 16.7 μg/kg/hr IV infusion for 4 hours, 30 min, mean of 2, baseline 95
  mean arterial pressure (MAP): 84 mm Hg
Group C, 16.7 μg/kg/hr IV infusion for 4 hours, 30 min, mean of 2, baseline 291
  heart rate (HR): 306 beats/minute
Group C, 16.7 μg/kg/hr IV infusion for 4 hours, 60 min, mean of 2, baseline 95
  mean arterial pressure (MAP): 85 mm Hg
Group C, 16.7 μg/kg/hr IV infusion for 4 hours, 60 min, mean of 2, baseline 291
  heart rate (HR): 300 beats/minute
Group C, 16.7 μg/kg/hr IV infusion for 4 hours, 90 min, mean of 2, baseline 95
  mean arterial pressure (MAP): 83 mm Hg
Group C, 16.7 μg/kg/hr IV infusion for 4 hours, 90 min, mean of 2, baseline 291
  heart rate (HR): 301 beats/minute
Group C, 16.7 μg/kg/hr IV infusion for 4 hours, 120 min, mean of 2, baseline 95
  mean arterial pressure (MAP): 85 mm Hg
Group C, 16.7 μg/kg/hr IV infusion for 4 hours, 120 min, mean of 2, baseline 291
  heart rate (HR): 304 beats/minute
Group C, 16.7 μg/kg/hr IV infusion for 4 hours, 150 min, mean of 2, baseline 95
  mean arterial pressure (MAP): 85 mm Hg
Group C, 16.7 μg/kg/hr IV infusion for 4 hours, 150 min, mean of 2, baseline 291
  heart rate (HR): 301 beats/minute
Group C, 16.7 μg/kg/hr IV infusion for 4 hours, 180 min, mean of 2, baseline 95
  mean arterial pressure (MAP): 85 mm Hg
Group C, 16.7 μg/kg/hr IV infusion for 4 hours, 180 min, mean of 2, baseline 291
  heart rate (HR): 298 beats/minute
Group C, 16.7 μg/kg/hr IV infusion for 4 hours, 210 min, mean of 2, baseline 95
  mean arterial pressure (MAP): 89 mm Hg
Group C, 16.7 μg/kg/hr IV infusion for 4 hours, 210 min, mean of 2, baseline 291
  heart rate (HR): 307 beats/minute
Group C, 16.7 μg/kg/hr IV infusion for 4 hours, 240 min, mean of 2, baseline 95
  mean arterial pressure (MAP): 89 mm Hg
Group C, 16.7 μg/kg/hr IV infusion for 4 hours, 240 min, mean of 2, baseline 291
  heart rate (HR): 306 beats/minute
[2]
  effect on heart rate: no significant change
  effect on mean arterial pressure: no significant change
Group D, 1.67 μg/kg/hr IV infusion for 4 hours, 5 min, mean of 2, baseline 89
  mean arterial pressure (MAP): 85 mm Hg
Group D, 1.67 μg/kg/hr IV infusion for 4 hours, 5 min, mean of 2, baseline 260
  heart rate (HR): 258 beats/minute
Group D, 1.67 μg/kg/hr IV infusion for 4 hours, 10 min, mean of 2, baseline 89
  mean arterial pressure (MAP): 87 mm Hg
Group D, 1.67 μg/kg/hr IV infusion for 4 hours, 10 min, mean of 2, baseline 260
  heart rate (HR): 260 beats/minute
Group D, 1.67 μg/kg/hr IV infusion for 4 hours, 15 min, mean of 2, baseline 89
  mean arterial pressure (MAP): 85 mm Hg
Group D, 1.67 μg/kg/hr IV infusion for 4 hours, 15 min, mean of 2, baseline 260
  heart rate (HR): 262 beats/minute
Group D, 1.67 μg/kg/hr IV infusion for 4 hours, 30 min, mean of 2, baseline 89
  mean arterial pressure (MAP): 85 mm Hg
Group D, 1.67 μg/kg/hr IV infusion for 4 hours, 30 min, mean of 2, baseline 260
  heart rate (HR): 262 beats/minute
Group D, 1.67 μg/kg/hr IV infusion for 4 hours, 60 min, mean of 2, baseline 89
  mean arterial pressure (MAP): 87 mm Hg
Group D, 1.67 μg/kg/hr IV infusion for 4 hours, 60 min, mean of 2, baseline 260
  heart rate (HR): 255 beats/minute
Group D, 1.67 μg/kg/hr IV infusion for 4 hours, 90 min, mean of 2, baseline 89
  mean arterial pressure (MAP): 87 mm Hg
Group D, 1.67 μg/kg/hr IV infusion for 4 hours, 90 min, mean of 2, baseline 260
  heart rate (HR): 253 beats/minute
Group D, 1.67 μg/kg/hr IV infusion for 4 hours, 120 min, mean of 2, baseline 89
  mean arterial pressure (MAP): 85 mm Hg
Group D, 1.67 μg/kg/hr IV infusion for 4 hours, 120 min, mean of 2, baseline 260
  heart rate (HR): 246 beats/minute
Group D, 1.67 μg/kg/hr IV infusion for 4 hours, 150 min, mean of 2, baseline 89
  mean arterial pressure (MAP): 87 mm Hg
Group D, 1.67 μg/kg/hr IV infusion for 4 hours, 150 min, mean of 2, baseline 260
  heart rate (HR): 246 beats/minute
Group D, 1.67 μg/kg/hr IV infusion for 4 hours, 180 min, mean of 2, baseline 89
  mean arterial pressure (MAP): 87 mm Hg
Group D, 1.67 μg/kg/hr IV infusion for 4 hours, 180 min, mean of 2, baseline 260
  heart rate (HR): 246 beats/minute
Group D, 1.67 μg/kg/hr IV infusion for 4 hours, 210 min, mean of 2, baseline 89
  mean arterial pressure (MAP): 85 mm Hg
Group D, 1.67 μg/kg/hr IV infusion for 4 hours, 210 min, mean of 2, baseline 260
  heart rate (HR): 247 beats/minute
Group D, 1.67 μg/kg/hr IV infusion for 4 hours, 240 min, mean of 2, baseline 89
  mean arterial pressure (MAP): 92 mm Hg
Group D, 1.67 μg/kg/hr IV infusion for 4 hours, 240 min, mean of 2, baseline 260
  heart rate (HR): 257 beats/minute
